In the experiment the test system is CD2F1 mice, L1210 leukemia ip, survival T/C. The experiment is described as follows: NCI In Vivo Anticancer Drug Screen. Data for tumor model L1210 Leukemia (intraperitoneal) in CD2F1 (CDF1) mice. Particulars: higher = longer survival. In outline: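 Implant tumor; dose compound or vehicle; measure endpoint in both groups; report treated divided by control.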
The mark [1] stands for this setting: endpoint: mean survival time, dose: 100.0 mg/kg/injection, schedule: Q01DX009 (ip), vehicle: saline with Tween-80.
Where [2] appears, read: endpoint: mean survival time, dose: 100.0 mg/kg/injection, schedule: Q04DX003 (ip), vehicle: saline with Tween-80.
[3] abbreviates: endpoint: mean survival time, dose: 200.0 mg/kg/injection, schedule: Q04DX003 (ip), vehicle: saline with Tween-80.

Where “and” joins values, the source holds several entries; their conditions need not be identical. Identical values can stand only once. Toxic doses and inconclusive results are not listed.

As to `N=c1ccn2c(n1)OC1C(O)C(CO)OC12` (stereo unspecified), the T/C reads like this: (endpoint: mean survival time, dose: 37.5 mg/kg/injection, schedule: Q01DX005 (ip), vehicle: saline) 151 % of control; (endpoint: mean survival time, dose: 53.0 mg/kg/injection, schedule: Q01DX009 (ip), vehicle: saline) 246 % of control; (endpoint: mean survival time, dose: 75.0 mg/kg/injection, schedule: Q01DX005 (ip), vehicle: saline) 152 % of control and 173 % of control; (endpoint: mean survival time, dose: 79.0 mg/kg/injection, schedule: Q01DX009 (ip), vehicle: saline) 247 % of control; (endpoint: mean survival time, dose: 100.0 mg/kg/injection, schedule: Q04DX002 (ip), vehicle: saline with Tween-80) 151 % of control; (endpoint: mean survival time, dose: 119.0 mg/kg/injection, schedule: Q01DX009 (ip), vehicle: saline) 331 % of control. Moreover, the T/C (endpoint: mean survival time, dose: 150.0 mg/kg/injection, schedule: Q01DX005 (ip), vehicle: saline) was 160 % of control and 171 % of control; the T/C (endpoint: mean survival time, dose: 178.0 mg/kg/injection, schedule: Q01DX009 (ip), vehicle: saline) was 341 % of control; the T/C (endpoint: mean survival time, dose: 200.0 mg/kg/injection, schedule: Q04DX002 (ip), vehicle: saline with Tween-80) is 158 % of control; the T/C (endpoint: mean survival time, dose: 300.0 mg/kg/injection, schedule: Q01DX005 (ip), vehicle: saline) is 205 % of control and 221 % of control; the T/C (endpoint: mean survival time, dose: 400.0 mg/kg/injection, schedule: Q04DX002 (ip), vehicle: saline with Tween-80) is 205 % of control; the T/C (endpoint: mean survival time, dose: 600.0 mg/kg/injection, schedule: Q01DX005 (ip), vehicle: saline) is 271 % of control and 274 % of control. The T/C (endpoint: median survival time, dose: 200.0 mg/kg/injection, schedule: Q01DX009 (ip), vehicle: water) was 375 % of control; the T/C (endpoint: median survival time, dose: 500.0 mg/kg/injection, schedule: Q01DX009 (ip), vehicle: water) is 93 % of control; the T/C (endpoint: median survival time, dose: 600.0 mg/kg/injection, schedule: Q01DX009 (ip), vehicle: water) was 105 % of control.
As for `C=C(CC(=O)O)C(=O)O` (tested in a mixture with another compound), the T/C is, setting by setting: (endpoint: mean survival time, dose: 50.0 mg/kg/injection, schedule: Q01DX009 (ip), vehicle: saline with Tween-80) 108 % of control; under setting [1], 120 % of control; under setting [2], 102 % of control; (endpoint: mean survival time, dose: 200.0 mg/kg/injection, schedule: Q01DX009 (ip), vehicle: saline with Tween-80) 105 % of control; under setting [3], 102 % of control.
For the molecule `Cc1noc(/N=C/c2cccc(Cl)c2)c1C`, the T/C (endpoint: mean survival time, dose: 100.0 mg/kg/injection, schedule: Q04DX003 (ip), vehicle: saline) was 96 % of control; the T/C (endpoint: mean survival time, dose: 200.0 mg/kg/injection, schedule: Q04DX003 (ip), vehicle: saline) was 101 % of control; the T/C (endpoint: mean survival time, dose: 400.0 mg/kg/injection, schedule: Q04DX003 (ip), vehicle: saline) was 101 % of control.
Consider `Nc1nc(Cl)c2[nH]cnc2n1`, for which the T/C runs as follows: (endpoint: mean survival time, dose: 13.3 mg/kg/injection, schedule: Q01DX009 (ip), vehicle: saline with Tween-80) 153 % of control; (endpoint: mean survival time, dose: 44.0 mg/kg/injection, schedule: Q01DX009 (ip), vehicle: saline with Tween-80) 151 % of control and 154 % of control; (endpoint: mean survival time, dose: 60.0 mg/kg/injection, schedule: Q04DX003 (ip), vehicle: saline with Tween-80) 181 % of control; (endpoint: mean survival time, dose: 66.0 mg/kg/injection, schedule: Q01DX009 (ip), vehicle: saline with Tween-80) 100 % of control; (endpoint: mean survival time, dose: 75.0 mg/kg/injection, schedule: Q04DX003 (ip), vehicle: saline with Tween-80) 160 % of control; (endpoint: mean survival time, dose: 88.0 mg/kg/injection, schedule: Q01DX009 (ip), vehicle: saline with Tween-80) 116 % of control. Further, the T/C runs as follows: under setting [1], 111 % of control; (endpoint: mean survival time, dose: 132.0 mg/kg/injection, schedule: Q01DX009 (ip), vehicle: saline with Tween-80) 113 % of control; (endpoint: mean survival time, dose: 150.0 mg/kg/injection, schedule: Q01DX009 (ip), vehicle: saline with Tween-80) 86 % of control; (endpoint: mean survival time, dose: 150.0 mg/kg/injection, schedule: Q04DX003 (ip), vehicle: saline with Tween-80) 156 % of control and 168 % of control; under setting [3], 122 % of control; (endpoint: mean survival time, dose: 300.0 mg/kg/injection, schedule: Q01DX009 (ip), vehicle: saline with Tween-80) 111 % of control.
On to `CCC(=O)c1ccc(NC(=O)Nc2ncccn2)cc1`, for which the T/C by setting is: (endpoint: mean survival time, dose: 50.0 mg/kg/injection, schedule: Q01DX009 (ip), vehicle: Klucel (hydroxypropylcellulose) (HPC)) 91 % of control; (endpoint: mean survival time, dose: 100.0 mg/kg/injection, schedule: Q01DX009 (ip), vehicle: Klucel (hydroxypropylcellulose) (HPC)) 94 % of control.
For the molecule `Cc1cc(N/N=c2/c3ccccc3n(O)c3c2ccc2ccccc23)ccc1O`, the T/C is 104 % of control under setting [2]; 104 % of control under setting [3]; 104 % of control (endpoint: mean survival time, dose: 400.0 mg/kg/injection, schedule: Q04DX003 (ip), vehicle: saline with Tween-80).
`Nc1nc(N)c2nc3c(nc2n1)CCCC3`: the T/C was 95 % of control (endpoint: mean survival time, dose: 100.0 mg/kg/injection, schedule: Q01DX001 (ip), vehicle: saline with Tween-80); 87 % of control (endpoint: mean survival time, dose: 200.0 mg/kg/injection, schedule: Q01DX001 (ip), vehicle: saline with Tween-80); 87 % of control (endpoint: mean survival time, dose: 400.0 mg/kg/injection, schedule: Q01DX001 (ip), vehicle: saline with Tween-80).
`OCC1OC(n2ncc3c(NO)ncnc32)C(O)C1O` (stereo unspecified): the T/C (endpoint: mean survival time, dose: 1.56 mg/kg/injection, schedule: Q01DX005 (ip), vehicle: water) is 103 % of control; the T/C (endpoint: mean survival time, dose: 3.13 mg/kg/injection, schedule: Q01DX005 (ip), vehicle: water) is 107 % of control; the T/C (endpoint: mean survival time, dose: 6.25 mg/kg/injection, schedule: Q01DX005 (ip), vehicle: water) is 103 % of control; the T/C (endpoint: mean survival time, dose: 12.5 mg/kg/injection, schedule: Q01DX005 (ip), vehicle: water) was 114 % of control; the T/C (endpoint: mean survival time, dose: 25.0 mg/kg/injection, schedule: Q01DX005 (ip), vehicle: water) was 88 % of control.
For `O=C(NCCCCCCNC(=O)N1CC1)N1CC1`, the T/C was 109 % of control (endpoint: mean survival time, dose: 0.4 mg/kg/injection, schedule: Q01DX001 (ip), vehicle: saline); 118 % of control (endpoint: mean survival time, dose: 0.8 mg/kg/injection, schedule: Q01DX001 (ip), vehicle: saline); 114 % of control (endpoint: mean survival time, dose: 1.7 mg/kg/injection, schedule: Q01DX001 (ip), vehicle: saline).
For the molecule `CCCCCCCCCCCCn1cnc2c(Cl)ncnc21`, the T/C reads like this: (endpoint: mean survival time, dose: 12.5 mg/kg/injection, schedule: Q01DX005 (ip), vehicle: other) 102 % of control; (endpoint: mean survival time, dose: 25.0 mg/kg/injection, schedule: Q01DX005 (ip), vehicle: other) 96 % of control; (endpoint: mean survival time, dose: 50.0 mg/kg/injection, schedule: Q01DX005 (ip), vehicle: other) 100 % of control; (endpoint: mean survival time, dose: 100.0 mg/kg/injection, schedule: Q01DX005 (ip), vehicle: other) 94 % of control; (endpoint: mean survival time, dose: 200.0 mg/kg/injection, schedule: Q01DX005 (ip), vehicle: other) 100 % of control.
For `CCN(CC)CCCNc1cc(OC)cc2nc3cc(Cl)ccc3nc12`, the T/C by setting is: (endpoint: mean survival time, dose: 12.5 mg/kg/injection, schedule: Q01DX009 (ip), vehicle: suspension in saline) 98 % of control; (endpoint: mean survival time, dose: 25.0 mg/kg/injection, schedule: Q01DX009 (ip), vehicle: suspension in saline) 100 % of control and 101 % of control; (endpoint: mean survival time, dose: 50.0 mg/kg/injection, schedule: Q01DX009 (ip), vehicle: suspension in saline) 98 % of control and 105 % of control; (endpoint: mean survival time, dose: 100.0 mg/kg/injection, schedule: Q01DX009 (ip), vehicle: suspension in saline) 101 % of control and 108 % of control; (endpoint: mean survival time, dose: 200.0 mg/kg/injection, schedule: Q01DX009 (ip), vehicle: suspension in saline) 112 % of control.
As for `C1CN(P2(N3CC3)=NP(N3CC3)(N3CC3)=NP(N3CC3)(N3CC3)=N2)CCO1` (stereo unspecified), the T/C runs as follows: (endpoint: mean survival time, dose: 6.25 mg/kg/injection, schedule: Q01DX009 (ip), vehicle: saline) 120 % of control and 123 % of control and 109 % of control; (endpoint: mean survival time, dose: 25.0 mg/kg/injection, schedule: Q01DX001 (ip), vehicle: saline) 121 % of control; (endpoint: mean survival time, dose: 50.0 mg/kg/injection, schedule: Q01DX001 (ip), vehicle: saline) 119 % of control; (endpoint: mean survival time, dose: 100.0 mg/kg/injection, schedule: Q01DX009 (ip), vehicle: saline) 98 % of control.
On to `COC1CC(CC2CCC(C)C(C(C)C(=O)O)O2)OC2(OC(C)(C3CCC(C)(C4OC(C5OC(O)(CO)C(C)CC5C)CC4C)O3)CC2C)C1C` (stereo unspecified), for which the T/C (endpoint: mean survival time, dose: 0.31 mg/kg/injection, schedule: Q01DX009 (ip), vehicle: Klucel (hydroxypropylcellulose) (HPC)) was 92 % of control; the T/C (endpoint: mean survival time, dose: 0.63 mg/kg/injection, schedule: Q01DX009 (ip), vehicle: Klucel (hydroxypropylcellulose) (HPC)) was 106 % of control; the T/C (endpoint: mean survival time, dose: 1.25 mg/kg/injection, schedule: Q01DX009 (ip), vehicle: Klucel (hydroxypropylcellulose) (HPC)) is 110 % of control; the T/C (endpoint: mean survival time, dose: 2.5 mg/kg/injection, schedule: Q01DX009 (ip), vehicle: Klucel (hydroxypropylcellulose) (HPC)) is 106 % of control.
With `O=S(=O)(O)O.[NH-]C1CCCCC1C1CCCCC1[NH-].[Pt+2]` (stereo unspecified), the T/C runs as follows: (endpoint: mean survival time, dose: 3.12 mg/kg/injection, schedule: Q04DX003 (ip), vehicle: distilled water + Tween-80) 119 % of control; (endpoint: mean survival time, dose: 12.5 mg/kg/injection, schedule: Q04DX003 (ip), vehicle: distilled water + Tween-80) 156 % of control.

(Values after PubChem BioAssay AID256 (DTP/NCI, 2004).)
